Laboratory results as given in patent US20240350436A1, “METHODS FOR HAIR GROWTH” (THE REGENTS OF THE UNIVERSITY OF MICHIGAN, priority 2021, published 2024).

Columns and labels:
[1] = tested on: Male and female Balb/cJ mice; experiment: Hair regrowth on shaved dorsal skin of mice after topical treatment; format: in vivo
Description: Hair regrowth was monitored daily. […] The hair length was measured by digital pachymeter.
Drug administration bpV(pic) (Sigma Aldrich, San Louis, MO, USA) was reconstituted in sterile Milli-Q water. bpV(pic) was also used to prepare a 10 μM bpV(pic) gel using 2% carmellose gel base (vehicle). bpV(pic) or vehicle gel was topically applied to the skin twice a day.
The dorsal skin of male and female mice was shaved and treated with vehicle or bpV (pic) topically, twice a day for 21 days (FIG. 1A).
The dorsal skin of male and female mice was shaved and treated with vehicle or SF1670 (N-(9,10-Dioxo-9,10-dihydro-phenanthren-2-yl)-2,2-dimethylpropionamide, N-(9,10-dihydro-9,10-dioxo-2-phenanthrenyl)-2,2-dimethyl-propanamide) topically, twice a day for 5 weeks. Hairs were collected once a week and measured using a millimeter (mm) as the measurement unit.

[2] = tested on: Human epidermal keratinocytes (HEK); conditions: HEK monolayer, 48 hrs treatment (FIG. 3D)
Description: (§1) Flow cytometry analysis Isolation of skin single-cell suspension. Briefly, the subcutis underlying the dorsal skin was removed, and the epithelial cell layer was trypsinized for 2 hours at 37° C. Epithelial cell suspensions were filtered through 70 μm mesh filters (BD Bioscience, San Jose, CA, USA) to achieve a single cell suspension. Cells were maintained on ice. Immunofluorescence staining for CD34-FITC and CD49f-P.E./Cye5 primary antibodies (BD Pharmingen, San Jose, CA, USA) was performed to detected hair follicle stem cells. Antibodies were incubated with the cells for 30 minutes at 4° C. after cells were incubated with FcR blocking reagent (Miltenyi Biotec, Bergisch Gladbach, Germany). Human epidermal keratinocytes (HEK) (Cell Applications, Inc., San Diego, CA) were cultured in Epi-Vita Growth Medium (Cell Applications, Inc., San Diego, CA) and maintained at 37° C. with 5% of CO2 in a humidified incubator. Human epidermal keratinocytes (HEK) were cultured in a monolayer following instructions for culture of primary cells and received BpV(pic) or vehicle for 48 hrs. Treated cells were trypsinized and stained for CD44-APC (BD Pharmingen, San Jose, CA, USA) and Aldefluor kit (StemCell Technologies, Durham, NC, USA) according to the manufacturer's instructions to detected aldehyde dehydrogenase (ALDH) enzymatic activity. […]

[3] = tested on: hair follicle stem cells; conditions: treated mice, FACS (FIGS. 3B-3C)
Description: as §1

[4] = tested on: proliferative cells in the hair follicle and interfollicular epidermis; conditions: after 10 days, BrdU positive cells per field
Description: BrdU labeling and cell proliferation BrdU (10 mg/ml) was injected in mice via IP two hours previous to the euthanasia. Tissue was collected and processed. The tissue was placed on slides and deparaffinized in xylene substitute and hydrated in descending grades of ethanol. Antigen retrieval was performed by HCL at 37° C. for 1 hour. Anti-BrdU (1:200, Novus Biologicals, Centennial, CO) was incubated overnight at 4° C., followed by secondary antibody conjugated with Alexa 488 incubation and counterstaining with Hoechst 33342. All slides were mounted using Fluoroshield. For quantification, ten fields were captured at a magnification of x400. The images were analyzed using ImageJ (NIH, Bethesda, MD, USA), and the proliferation was expressed as the number of positive cells per field.
(§2) Skin samples were taken from treated and vehicle control mice and stained to evaluate skin histomorphology. Hair follicle cycle was evaluated by morphology and divided into 3 phases: growth phase (anagen); regression phase (catagen); and telogen. […] Proliferative cells in the hair follicle (follicular) and interfollicular epidermis (Interfollicular) were quantified for the identified timepoints.

[5] = tested on: hair follicles; conditions: skin samples of treated mice, H&E (FIG. 2A)
Description: as §2

For CC(C)(C)C(=O)Nc1ccc2c(c1)C(=O)C(=O)c1ccccc1-2 [SF1670, N-(9,10-Dioxo-9,10-dihydro-phenanthren-2-yl)-2,2-dimethylpropionamide], the “hair regrowth (hair length) compared to vehicle control” value ([1]; topically twice a day for 5 weeks, hairs measured once a week (FIG. 4)) was “faster hair regrowth”.
O=C([O-])c1ccccn1.[K+].[K+].[O-2].[O-][O-].[O-][O-].[V+5] [bpV(pic), dipotassium bisperoxo(pyridine-2-carboxyl)oxovanadate] was tested, and the “hair regrowth (hair length) in comparison to the vehicle control” value ([1]; 10 μM gel topically twice a day for 21 days, shaved dorsal skin, all subjects (FIG. 1B)) was “induced hair regrowth”, the “stem cell number in human stem cells compared to vehicle control” value [2] was “confirmed” and the “number of hair follicle stem cells compared to vehicle control” value [3] was “increased”. The “proliferative cells in the hair follicle (follicular) versus vehicle control” value [4] was “increased”, the “proliferative cells in the interfollicular epidermis versus vehicle control” value [4] was “increased” and the “hair follicle cycle phase by morphology” value [5] was “anagen phase”.
